Values quoted from earlier work in patent publication US20080057142A1, “COMPOSITIONS AND METHODS FOR WEIGHT-LOSS AND WEIGHT-LOSS MAINTENANCE IN DAYTIME AND NIGHTTIME FORMULATION” (priority 2005, published 2008).

Conditions: EGCG, but not related catechins

Question: With epigallocatechin-3-gallate [EGCG] as the substance, how does the body weight read?
Answer: reduced body weight

Question: What about the food intake of the same substance?
Answer: significantly reduced food intake
